Measured values as given in ChEMBL document CHEMBL1159236, “Venezenin: a new bioactive Annonaceous acetogenin from the bark of Xylopia aromatica” (J Nat Prod, 1995).
≈ marks a conversion by molar mass, not a printed value.

Assays:
A549 = assay: Cytotoxicity against human A549 cells after 7 hrs by MTT assay; type: functional; conditions: A549, 7 h, read-out: ED50 (the source's name)
[1] = Toxicity in brine shrimp; type: organism-based; conditions: artemia, in vivo
MCF7 = assay: Cytotoxicity against human MCF7 cells after 7 hrs by MTT assay; type: functional; conditions: for EC50: Homo sapiens, MCF7, 7 h, read-out: ED50 (the source's name)
HT-29 = assay: Cytotoxicity against human HT-29 cells after 7 hrs by MTT assay; type: functional; conditions: for EC50: Homo sapiens, HT-29, 7 h, read-out: ED50 (the source's name)
[2] = Inhibition of respiration in rat liver mitochondria assessed per mg of protein; type: functional

SMILES	EC50 (A549) [µg/mL]	LC50 [1] [µg/mL]	EC50 (MCF7) [µg/mL]	EC50 (HT-29) [µg/mL]	IC50 [2] [µM]	ED50 (MCF7) [×10⁻⁵ ug/ml]	ED50 (HT-29) [×10⁻⁴ ug/ml]
CCCCCCCCCCCC/C=C\CC[C@@H](O)[C@H](O)CCCCCCC(=O)CCCCC[C@@H](O)CC1=C[C@H](C)OC1=O [VENEZENIN]	0.0108 (≈ 0.0178 µM)	9.33 (≈ 15.4 µM)	< 0.01	1.58 (≈ 2.6 µM)			
CCCCCCCCCCCC/C=C\CC[C@H]1OC(C)(C)O[C@@H]1CCCCCCC(=O)CCCCC[C@@H](O)CC1=C[C@H](C)OC1=O	< 0.001		0.347 (≈ 0.536 µM)	0.932 (≈ 1.44 µM)			
CCCCCCCCCCCC/C=C\CC[C@@H](O)[C@H](O)CCCCCCC(O)CCCCC[C@@H](O)CC1=C[C@H](C)OC1=O (stereo partly drawn)	< 0.001		0.0572 (≈ 0.0939 µM)	2.62 (≈ 4.3 µM)			
C=C(C)[C@H]1Cc2c(ccc3c2O[C@@H]2COc4cc(OC)c(OC)cc4[C@@H]2C3=O)O1 [ROTENONE]					34		
COc1cccc2c1C(=O)c1c(O)c3c(c(O)c1C2=O)C[C@@](O)(C(=O)CO)C[C@@H]3O[C@H]1C[C@H](N)[C@H](O)[C@H](C)O1 [DOXORUBICIN]	0.0092 (≈ 0.0169 µM)		0.23 (≈ 0.423 µM)	0.0392 (≈ 0.0721 µM)			
CCCCCCCCCCCC[C@H](O)[C@@H]1CC[C@@H]([C@@H](O)CCCCCCC(=O)CCCCC[C@@H](O)CC2=C[C@H](C)OC2=O)O1	0.00786 (≈ 0.0126 µM)	0.84 (≈ 1.35 µM)			1.7	7.47	3.46
CCCCCCCCCCCC[C@H](O)[C@@H]1CC[C@H]([C@H](O)CCCCCCC(=O)CCCCC[C@@H](O)CC2=C[C@H](C)OC2=O)O1	0.0045 (≈ 0.00722 µM)	0.98 (≈ 1.57 µM)	0.056 (≈ 0.0899 µM)	0.047 (≈ 0.0755 µM)			
